This passage reports IC50 and melting point results from patent US6911453B2 (Aventis Pharma Deutschland GmbH, priority 2001, dated 2005).

Structures are written as SMILES. Structures can show the parent of a compound that is named as a salt.

In one series the target is T1, NHE3 (Homo sapiens, UniProt P48764).
T1 sequence (P48764 1-834): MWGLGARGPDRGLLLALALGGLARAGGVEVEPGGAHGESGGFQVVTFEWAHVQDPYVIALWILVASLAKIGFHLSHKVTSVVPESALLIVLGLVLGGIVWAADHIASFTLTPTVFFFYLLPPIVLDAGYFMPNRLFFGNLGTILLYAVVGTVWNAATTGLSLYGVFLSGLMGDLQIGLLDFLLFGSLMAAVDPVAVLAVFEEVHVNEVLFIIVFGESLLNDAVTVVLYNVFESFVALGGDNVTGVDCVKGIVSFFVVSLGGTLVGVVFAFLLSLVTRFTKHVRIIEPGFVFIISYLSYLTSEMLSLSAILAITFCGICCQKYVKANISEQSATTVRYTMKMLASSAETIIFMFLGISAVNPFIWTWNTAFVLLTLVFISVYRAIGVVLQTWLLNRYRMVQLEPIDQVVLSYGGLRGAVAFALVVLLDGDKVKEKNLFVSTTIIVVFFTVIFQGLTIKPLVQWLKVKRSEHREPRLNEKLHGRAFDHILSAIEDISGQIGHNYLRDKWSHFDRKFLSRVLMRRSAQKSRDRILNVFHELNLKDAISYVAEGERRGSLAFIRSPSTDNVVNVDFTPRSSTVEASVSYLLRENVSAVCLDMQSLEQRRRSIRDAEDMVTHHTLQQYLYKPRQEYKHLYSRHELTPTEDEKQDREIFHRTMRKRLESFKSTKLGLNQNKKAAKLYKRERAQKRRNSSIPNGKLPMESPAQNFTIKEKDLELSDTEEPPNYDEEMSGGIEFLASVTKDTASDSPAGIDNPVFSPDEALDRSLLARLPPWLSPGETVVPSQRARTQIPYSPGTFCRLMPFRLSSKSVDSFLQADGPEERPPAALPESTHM
Kind of series: Recovery of intracellular pH (pHi) after acidification, BCECF fluorescence, NHE3. The format is cell-based. The conditions noted are these: inhibition of pH recovery after intracellular acidification; rate recorded for three minutes; BCECF-loaded cells. The method, then:
In this test, the recovery in the intracellular pH (pHi) after an acidification is ascertained, which is initiated if the NHE is capable of functioning, even under bicarbonate-free conditions. For this purpose, the pHi was determined using the pH-sensitive fluorescent dye BCECF (Calbiochem, the precursor BCECF-AM is employed).
The cells were initially loaded with BCECF. The BCECF fluorescence was determined in a “Ratio Fluorescence Spectrometer” (Photon Technology International, South Brunswick, N.J., USA) at excitation wavelengths of 505 and 440 nm and an emission wavelength of 535 nm and converted into the pHi using calibration curves. The cells were incubated in NH4Cl buffer (pH 7.4) (NH4Cl buffer: 115 mM NaCl, 20 mM NH4Cl, 5 mM KCl, 1 mM CaCl2, 1 mM MgSO4, 20 mM Hepes, 5 mM glucose, 1 mg/ml BSA; a pH of 7.4 is adjusted with 1 M NaOH) even during the BCECF loading. The intracellular acidification was induced by adding 975 μl of an NH4Cl-free buffer (see below) to 25 μl aliquots of the cells incubated in NH4Cl buffer. The subsequent rate of pH recovery was recorded for two minutes with NHE1, five minutes with NHE2 and three minutes with NHE3. To calculate the inhibitory potency of the tested substances, the cells were initially investigated in buffers with which a complete or absolutely no pH recovery took place. For complete pH recovery (100%), the cells were incubated in Na^+-containing buffer (133.8 mM NaCl, 4.7 mM KCl, 1.25 mM CaCl2, 1.25 mM MgCl2, 0.97 mM Na2HPO4, 0.23 mM NaH2PO4, 5 mM Hepes, 5 mM glucose, a pH of 7.0 is adjusted with 1 M NaOH). To determine the 0% value, the cells were incubated in an Na^+-free buffer (133.8 mM choline chloride, 4.7 mM KCl, 1.25 mM CaCl2, 1.25 mM MgCl2, 0.97 mM K2HPO4, 0.23 mM KH2PO4, 5 mM Hepes, 5 mM glucose, a pH of 7.0 is adjusted with 1 M NaOH). The substances to be tested were made up in the Na^+-containing buffer. The recovery of the intracellular pH at each test concentration of a substance was expressed as a percentage of the maximum recovery. The IC50 value for the particular substance for the individual NHE subtypes was calculated from the pH recovery percentages using the Sigma-Plot program.
A word on the IC50: it is the midpoint of a concentration-inhibition curve. A lower IC50 goes with inhibition by little substance. With `CN1Cc2c(Cl)cc(Cl)cc2C(c2ccc(S(N)(=O)=O)cc2)C1` (single isomer, unassigned; (+)) [Example 2a, (+)-4-(6,8-Dichloro-2-methyl-1,2,3,4-tetrahydro-isoquinolin-4-yl)-benzene-sulfonamide hydrochloride], the IC50 was 0.082 µM.
The same measure, in the same setting: next, `CN1Cc2c(Cl)cc(Cl)cc2C(c2cccc(S(N)(=O)=O)c2)C1` (single isomer, unassigned; (+)) [Example 2b, (+)-3-(6,8-Dichloro-2-methyl-1,2,3,4-tetrahydro-isoquinolin-4-yl)-benzene-sulfonamide hydrochloride]: 0.026 µM.
In turn, `CNC(=O)N(C)c1cccc(C2CN(C)Cc3c(Cl)cc(Cl)cc32)c1` (single isomer, unassigned; (+)) [Example 199] gave an IC50 of 0.252 µM.
In turn, `CC(=O)Nc1ccc(C2CN(C)Cc3c(Cl)cc(Cl)cc32)cc1.Cl` (stereo not shown) [Example 1a, N-[4-(6,8-Dichloro-2-methyl-1,2,3,4-tetrahydro-isoquinolin-4-yl)-phenyl]-acetamide-hydrochloride] registered an IC50 of 0.075 µM.
As for `CN1Cc2c(Cl)cc(Cl)cc2C(c2ccc(C(=O)O)cc2)C1` (stereo not shown) [Example 6, 4-(6,8-Dichloro-2-methyl-1,2,3,4-tetrahydro-isoquinolin-4-yl)-benzoic acid], it took 0.67 µM to reach half-maximal inhibition (IC50).
`CCNC(=O)c1ccc(C2CN(C)Cc3c(Cl)cc(Cl)cc32)cc1` (stereo not shown) [Example 7, 4-(6,8-Dichloro-2-methyl-1,2,3,4-tetrahydroisoquinolin-4-yl)-N-ethyl-benzamide, Trifluoroacetate]: the IC50 stood at 0.25 µM.
Turning to `CN1Cc2c(Cl)cc(Cl)cc2C(c2ccc(N3CCOCC3)cc2)C1` (stereo not shown) [Example 10, 6,8-Dichloro-2-methyl-4-(4-morpholin-4-yl-phenyl)-1,2,3,4-tetrahydroisoquinoline, Trifluoroacetate], the IC50 worked out at 1 µM.
For `CN1Cc2c(Cl)cc(Cl)cc2C(c2ccc(N)cc2)C1` (stereo not shown) [Example 17, 4-(6,8-Dichloro-2-methyl-1,2,3,4-tetrahydro-isoquinolin-4-yl)-phenylamine, Hydrochloride], half-maximal inhibition (IC50) was put at 0.049 µM.
With `CCNC(=O)Nc1ccc(C2CN(C)Cc3c(Cl)cc(Cl)cc32)cc1` (stereo not shown) [Example 21, 1-[4-(6,8-Dichloro-2-methyl-1,2,3,4-tetrahydro-isoquinolin-4-yl)-phenyl]-3-ethylurea], 0.814 µM corresponded to half-maximal inhibition (IC50).
As for `CC(=O)Nc1ccc(C2CN(C)Cc3c(C)cc(C)cc32)cc1` (stereo not shown) [Example 23, N-[4-(2,6,8-Trimethyl-1,2,3,4-tetrahydro-isoquinolin-4-yl)-phenyl]-acetamide], the IC50 stood at 1.51 µM.
Turning to `CC(=O)Nc1ccc(C2CN(C)Cc3c(Cl)cc(Br)cc32)cc1` (stereo not shown) [Example 24, N-[4-(6-Bromo-8-chloro-2-methyl-1,2,3,4-tetrahydro-isoquinolin-4-yl)-phenyl]-acetamide], the IC50 amounted to 0.34 µM.
Compound `CN1Cc2c(Cl)cc(Cl)cc2C(c2ccc(O)c(C(=O)O)c2)C1` (stereo not shown) [Example 29, 5-(6,8-Dichloro-2-methyl-1,2,3,4-tetrahydro-isoquinolin-4-yl)-2-hydroxy-benzoic acid] had a concentration for half-maximal inhibition (IC50) of 0.318 µM.
Same read-out and setting: the same measure for `CN1Cc2c(Cl)cc(Cl)cc2C(c2ccccc2N)C1` (stereo not shown) [Example 36, 2-(6,8-Dichloro-2-methyl-1,2,3,4-tetrahydro-isoquinolin-4-yl)-phenylamine]: 0.274 µM; for `CN1Cc2c(Cl)cc(Cl)cc2C(c2ccc(NS(C)(=O)=O)cc2)C1` (stereo not shown) [Example 48]: 0.349 µM; for `CCC(=O)Nc1cccc(C2CN(C)Cc3c(Cl)cc(Cl)cc32)c1` (stereo not shown) [Example 51]: 0.215 µM.
Still for that read-out and setting: next, `CC(=O)N1CCC(C(=O)Nc2cccc(C3CN(C)Cc4c(Cl)cc(Cl)cc43)c2)CC1` (stereo not shown) [Example 60]: 0.202 µM; `CN1Cc2c(Cl)cc(Cl)cc2C(c2cccc(NS(=O)(=O)N(C)C)c2)C1` (stereo not shown) [Example 64]: 0.507 µM; `CNC(=S)Nc1ccccc1C1CN(C)Cc2c(Cl)cc(Cl)cc21` (stereo not shown) [Example 81, 1-[2-(6,8-Dichloro-2-methyl-1,2,3,4-tetrahydro-isoquinolin-4-yl)-phenyl]-3-methyl-thiourea, Trifluoroacetate]: 0.73 µM.
With `CN1Cc2c(Cl)cc(Cl)cc2C(c2ccc(NS(=O)(=O)C(F)(F)F)cc2)C1` (stereo not shown) [Example 87], the IC50 turned out to be 0.418 µM.
`Cc1nc(S(=O)(=O)Nc2cccc(C3CN(C)Cc4c(Cl)cc(Cl)cc43)c2)cn1C` (stereo not shown) [Example 97] gave an IC50 of 0.308 µM.
`CN(C)CC(=O)Nc1ccc(C2CN(C)Cc3c(Cl)cc(Cl)cc32)cc1` (stereo not shown) [Example 113] displayed an IC50 of 0.279 µM.
`CN1Cc2c(Cl)cc(Cl)cc2C(c2ccc(NC(=O)c3cc[nH]c3)cc2)C1` (stereo not shown) [Example 119] came in with an IC50 of 0.682 µM.
`CN1Cc2c(Cl)cc(Cl)cc2C(c2cccc(NC(=O)C3CCN(S(C)(=O)=O)CC3)c2)C1` (stereo not shown) [Example 144] yielded an IC50 of 0.695 µM.
The compound `CN1Cc2c(Cl)cc(Cl)cc2C(c2cccc(NC(=O)c3cn[nH]c3)c2)C1` (stereo not shown) [Example 146] returned an IC50 of 0.024 µM.
`CN1Cc2c(Cl)cc(Cl)cc2C(c2cccc(NC(=O)N3CCCCC3)c2)C1` (stereo not shown) [Example 153] yielded an IC50 of 0.602 µM.
`CN1Cc2c(Cl)cc(Cl)cc2C(c2ccc(NC(=O)N3CCOCC3)cc2)C1` (stereo not shown) [Example 183] registered an IC50 of 0.597 µM.
Regarding `COC(=O)Nc1cccc(C2CN(C)Cc3c(Cl)cc(Cl)cc32)c1` (stereo not shown) [Example 207, [3-(6,8-Dichloro-2-methyl-1,2,3,4-tetrahydro-isoquinolin-4-yl)-phenyl]-carbamic acid methyl Ester—Hydrochloride Salt], the IC50 was 0.186 µM.

System in the next series: not given
Assay: not given
Conditions: not given
Usually melting point stands for the temperature, or range, at which the solid turns liquid. Consider `CC(=O)Nc1ccc(C2CN(C)Cc3c(Cl)cc(Cl)cc32)cc1` (stereo not shown), for which the melting point lay within 205 to 206 °C.
Same read-out and setting: next, `CC(=O)Nc1ccc(C2CN(C)Cc3c(Cl)cc(Cl)cc32)cc1.Cl` (stereo not shown) [Example 1a, N-[4-(6,8-Dichloro-2-methyl-1,2,3,4-tetrahydro-isoquinolin-4-yl)-phenyl]-acetamide-hydrochloride]: 125 °C (dec.); `CCNC(=O)Nc1ccc(C2CN(C)Cc3c(Cl)cc(Cl)cc32)cc1` (stereo not shown) [Example 21, 1-[4-(6,8-Dichloro-2-methyl-1,2,3,4-tetrahydro-isoquinolin-4-yl)-phenyl]-3-ethylurea]: 218 to 220 °C; `CN1Cc2c(Cl)cc(Cl)cc2C(c2ccc(Cl)c(S(N)(=O)=O)c2)C1` (stereo not shown) [Example 99]: 122 °C.
